Paper PMC3718762, “Differential Disruption of EWS-FLI1 Binding by DNA-Binding Agents” (PLoS ONE, 2013)
Where a name gives a salt, the structure may show the parent alone. Read-outs that look alike come from different tables or passages of the source.

Tests used:
[1] = molecular target: T1, p53 (Homo sapiens, UniProt P04637); test: AlphaScreen proximity assay (counterscreen), binding of recombinant p53 to cognate DNA oligo
T1 construct: made in house; host or cells: bacteria (pGex-6P-1-p53); plasmid was a gift from Dr. Guangchao Sui
T1 sequence (P04637 whole entry, species assumed): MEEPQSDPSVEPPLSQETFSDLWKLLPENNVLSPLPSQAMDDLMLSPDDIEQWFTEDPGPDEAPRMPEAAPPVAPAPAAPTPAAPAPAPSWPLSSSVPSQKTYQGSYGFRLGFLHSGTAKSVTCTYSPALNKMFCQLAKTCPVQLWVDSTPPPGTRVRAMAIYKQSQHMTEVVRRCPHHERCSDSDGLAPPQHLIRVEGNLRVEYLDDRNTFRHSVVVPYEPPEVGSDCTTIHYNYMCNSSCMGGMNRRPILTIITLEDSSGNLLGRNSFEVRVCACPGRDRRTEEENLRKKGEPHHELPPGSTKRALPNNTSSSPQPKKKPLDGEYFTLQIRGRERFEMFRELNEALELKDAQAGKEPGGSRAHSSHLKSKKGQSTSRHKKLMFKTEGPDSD
From the text: An AlphaScreen assay for binding of recombinant EWS-FLI1 to DNA was previously described. Briefly, recombinant EWS-FLI1 and p53 were synthesized in bacteria transformed with pGex-6P-1-EWS-FLI1 or pGex-6P-1-p53, and bound to AlphaScreen acceptor beads. A biotinylated oligonucleotide containing two copies of the EWS-FLI1 binding motif or p53 binding motifs was bound to AlphaScreen donor beads. For EWS-FLI1, the oligo sequence was: […]. The p53 binding oligo sequence was: […]. This assay was used to screen 5,200 compounds, as previously described. IC50 values were calculated with the GraphPad Prism software package.
We developed a homogeneous AlphaScreen assay to assess the binding of recombinant EWS-FLI1 to DNA [18]. A parallel assay assessing binding of p53 to DNA was used as a counterscreen. Briefly, in these proximity assays, recombinant GST-EWS-FLI1 or GST-p53 was bound to glutathione-conjugated AlphaScreen acceptor beads, and a synthetic biotinylated oligonucleotide (oligo) containing tandem EWS-FLI1 or p53 binding sites was bound to streptavidin-conjugated AlphaScreen donor beads. Binding of GST-EWS-FLI1 or GST-p53 to the cognate oligo allows singlet oxygen transfer from donor to acceptor beads when excited at 680 nm, with resulting light emission between 520–620 nm.

[2] = molecular target: EWS-FLI1; test: AlphaScreen proximity assay, binding of recombinant EWS-FLI1 to cognate DNA oligo; settings: for IC50: read-out: IC50 EWS-FLI1, disruption of recombinant EWS-FLI1 binding to DNA; for Disruption of EWS-FLI1 binding compared with p53 binding in the parallel assays: EWS-FLI1 versus p53
[3] = system: EWS-FLI1 downstream targets; design: method as in PMID 21403840, PMID 21653923; settings: prior studies ref [11], [12]; cited from earlier work
[4] = system: Ewing sarcoma cells; design: method as in PMID 21403840, PMID 21653923; settings: prior studies ref [11], [12]; cited from earlier work
[5] = system: NR0B1 promoter; test: NR0B1-Luc firefly luciferase reporter assay in A673 cells; assay type: cell-based, human; settings: A673 cells, NR0B1-Luc versus UbC-RL
From the text: The NR0B1 promoter was amplified from human genomic DNA using the 5′ primer- […] and 3′ primer - […]. NR0B1 promoter amplicon was cloned into the NheI and HindIII sites in the pGL.3Basic vector. The 5′ primer-[…] was used to amplify a truncated NR0B1 promoter in which the entire EWS-FLI1 binding region (GGAA repeats) was deleted to construct pGL.3b-NR0B1del. All constructs were confirmed by sequencing. All other plasmids were previously described.
Ewing sarcoma A673 cells at 50% confluence in 100 mm dishes were transfected with both 5.8 µg of pGL.3b-NR0B1 and 0.2 µg of pGL.3b-Ubc-RL reporter plasmids as above. Eight hours post-transfection, cells were trypsinized and 600 ul (2×10^5) of cells were added to each well of 24 well plates. 5 µl of different concentration of compounds or DMSO control were added to each well. Each treatment was performed in triplicate. Cells were incubated for 16 hours, then cells were lysed in 100 µl of lysis buffer and 10 µl of cell lysate was used for the dual luciferase assay. Renilla luciferase activity was used as an internal control for normalization of nonspecific transcriptional inhibition or cytotoxic effects. Experiments were repeated three times. IC50 values were calculated using Prism (Graphpad).
To determine the effect of compounds on EWS-FLI1 activity in cells, we used a reporter assay comprised of the NR0B1 promoter, a prototypical EWS-FLI1-regulated gene, driving expression of firefly luciferase. Renilla luciferase driven by the Ubiquitin C promoter (UbC-RL) was used as an internal control. Confirming prior studies, the NR0B1 promoter was verified to be highly responsive to EWS-FLI1, whereas the UbC promoter activity was not subject to regulation by EWS-FLI1 (Figure S1).

[6] = AlphaScreen, disruption of recombinant p53 binding to DNA, read-out: IC50 p53

IC50 [1, 6] | Molecule | IC50 [2] | other results
2810 nM | Cn1c2ccccc2c2c3c(c4c5ccccc5n(CCC#N)c4c21)CNC3=O [Go 6976] |  | 
6060 nM | CCN(CC)CCCC(C)Nc1c2ccc(Cl)cc2nc2ccc(OC)cc12 (stereo not drawn) [Quinacrine HCl] | 7030 nM | 
 | CC(C)=CC[C@@H](O)C1=CC(=O)c2c(O)ccc(O)c2C1=O [Shikonin] | 600 nM | IC50 [1]: 633 nM
 | COc1cccc2c1C(=O)c1c(O)c3c(c(O)c1C2=O)C[C@@](O)(C(C)=O)C[C@@H]3O[C@H]1C[C@H](N)[C@H](O)[C@H](C)O1 [Daunorubicin] | 4480 nM | Disruption of EWS-FLI1 binding compared with p53 binding in the parallel assays [2]: disrupt both EWS-FLI1 and p53 binding similarly
5290 nM | CCCCc1oc2ccccc2c1C(=O)c1cc(I)c(OCCN(CC)CC)c(I)c1 [Amiodarone HCl] |  | 
 | COc1cc2c(cc1O)CCN[C@]21CS[C@@H]2c3c(OC(C)=O)c(C)c4c(c3[C@H](COC1=O)N1[C@@H]2[C@H]2c3c(cc(C)c(OC)c3O)C[C@@H]([C@@H]1O)N2C)OCO4 [ET-743, trabectedin] |  | Expression of EWS-FLI1 downstream targets [3]: reduced; Growth of Ewing sarcoma cells [4]: inhibited
> 10000 nM | CCOc1ccc(C=C2SC(=O)N(CCN)C2=O)cc1.Cl [Erk inihibitor] | 3350 nM | Separation of inhibition of the NR0B1 and UbC reporters [5]: modulated the NR0B1 and UbC reporters equally
 | COc1ccc2[nH]c([S+]([O-])Cc3ncc(C)c(OC)c3C)nc2c1 (stereo not drawn) [Omeprazole] | 7330 nM | 
203 nM | CC(C)/N=c1\cc2n(-c3ccc(Cl)cc3)c3ccccc3nc-2cc1Nc1ccc(Cl)cc1 [Clofazimine] | 202 nM | 
 | COc1cccc2c1C(=O)c1c(O)c3c(c(O)c1C2=O)C[C@@](O)(C(=O)CO)C[C@@H]3O[C@H]1C[C@H](N)[C@@H](O)[C@H](C)O1 [Epirubicin] | 42 nM | IC50 [1]: 389 nM; Separation of inhibition of the NR0B1 and UbC reporters [5]: no separation
1200 nM | CC(C)[C@H](CO)Nc1nc(Nc2cc(N)cc(Cl)c2)c2ncn(C(C)C)c2n1 [Aminopurvalanol A] | 1830 nM | 
 | mithramycin |  | Expression of EWS-FLI1 downstream targets [3]: reduced; Growth of Ewing sarcoma cells [4]: inhibited
> 10000 nM | O=c1c2ccccc2[se]n1-c1ccccc1 [Ebselen] | 631 nM | Separation of inhibition of the NR0B1 and UbC reporters [5]: modulated the NR0B1 and UbC reporters equally
 | Verteporfin | 342 nM | 
 | COc1cccc2c1C(=O)c1c(O)c3c(c(O)c1C2=O)C[C@@](O)(C(=O)CO)C[C@@H]3O[C@H]1C[C@H](N)[C@H](O)[C@H](C)O1 [Doxorubincin] | 344 nM | IC50 [1]: 1220 nM; Disruption of EWS-FLI1 binding compared with p53 binding in the parallel assays [2]: disrupt both EWS-FLI1 and p53 binding similarly; Separation of inhibition of the NR0B1 and UbC reporters [5]: no separation
 | c1nc2nc(Nc3ccc(N4CCOCC4)cc3)nc(NC3CCCCC3)c2[nH]1 [Reversine] | 2420 nM | IC50 [1]: 2710 nM

Molecule | IC50 [1, 6] | IC50 [2] | other results
CN(C)c1ccc(/C=C2\C(=O)Nc3ccccc32)cc1 [DMBI] | 3780 nM | 3370 nM | 
N.N.[Cl][Pt][Cl] [Cisplatin] | 8870 nM | 5390 nM | Disruption of EWS-FLI1 binding compared with p53 binding in the parallel assays [2]: disrupt both EWS-FLI1 and p53 binding similarly
CC(=O)[O][Hg][c]1ccccc1 [Phenylmericuric Acetate] | 25 nM | 16 nM | 
CCOc1ccc2c(c1)C(C)=CC(C)(C)N2 [Ethoxyqiun] | 484 nM | 464 nM | 
